Measured values: ChEMBL document CHEMBL1153073, “Semi-synthesis and anti-proliferative activity evaluation of novel analogues of Honokiol” (Bioorg Med Chem Lett, 2009)

Experiments:
Format in all cases: functional, cell-based
[1] = Antiproliferative activity against human SPC-A1 cells by MTT assay; details: SPCA1
[2] = system: A2780; test: Antiproliferative activity against cisplatin-sensitive human A2780 cells by MTT assay
[3] = system: K562; test: Antiproliferative activity against human K562 cells by MTT assay
[4] = system: A2780; test: Antiproliferative activity against cisplatin-resistant human A2780 cells by MTT assay
[5] = system: A549; test: Antiproliferative activity against human A549 cells by MTT assay

## C=CCc1ccc(O)c(-c2cc(C=O)c(O)c(CC=C)c2)c1
[1]
  IC50: 25.5 µM
[2]
  IC50: 16.7 µM
[3]
  IC50: 11.9 µM
[4]
  IC50: 22.4 µM
[5]
  IC50: 41.8 µM

## C=CCc1cc(C=O)c(O)c(-c2ccc(O)c(CC=C)c2)c1
[1]
  IC50: 38.4 µM
[3]
  IC50: 38.8 µM
[5]
  IC50: 41.8 µM

## C=CCc1ccc(O)c(-c2cc(/C=C(\C#N)C(=O)OCC)c(O)c(CC=C)c2)c1
[1]
  IC50: 62 µM
[3]
  IC50: 47.6 µM
[5]
  IC50: 57.6 µM

## C=CCc1cc(/C=N/Nc2ccccc2)c(O)c(-c2ccc(O)c(CC=C)c2)c1
[1]
  IC50: > 104 µM
[3]
  IC50: > 104 µM
[5]
  IC50: > 104 µM

## C=CCc1cc(/C=N\O)c(O)c(-c2cc(/C=N/O)c(O)c(CC=C)c2)c1
[1]
  IC50: 43.8 µM
[2]
  IC50: 20.2 µM
[3]
  IC50: 21.5 µM
[4]
  IC50: 29.3 µM
[5]
  IC50: 32.4 µM

## C=CCc1cc(/C=C2\SC(=O)NC2=O)c(O)c(-c2cc(/C=C3\SC(=O)NC3=O)c(O)c(CC=C)c2)c1
[1]
  IC50: > 76.9 µM
[3]
  IC50: > 76.9 µM
[5]
  IC50: > 76.9 µM

## C=CCc1cc(C=O)c(O)c(-c2cc(C=O)c(O)c(CC=C)c2)c1
[1]
  IC50: 45.3 µM
[3]
  IC50: 36 µM
[5]
  IC50: 55 µM

## C=CCc1cc(/C=N/c2ccccc2)c(O)c(-c2ccc(O)c(CC=C)c2)c1
[1]
  IC50: 40.7 µM
[3]
  IC50: 32.2 µM
[5]
  IC50: 39.8 µM

## C=CCc1cc(-c2ccc(O)c(CC=C)c2)c2oncc2c1
[1]
  IC50: 77.3 µM
[3]
  IC50: 78.4 µM
[5]
  IC50: 65.6 µM

## C=CCc1ccc(O)c(-c2cc(/C=N/O)c(O)c(CC=C)c2)c1
[1]
  IC50: 53.1 µM
[3]
  IC50: 24.9 µM
[5]
  IC50: 39.5 µM

## C=CCc1ccc(O)c(-c2ccc(O)c(CC=C)c2)c1 [HONOKIOL]
[1]
  IC50: 36.1 µM
[2]
  IC50: 30.5 µM
[3]
  IC50: 21.1 µM
[4]
  IC50: 41.2 µM
[5]
  IC50: 35 µM

## C=CCc1cc(/C=N\O)c(O)c(-c2ccc(O)c(CC=C)c2)c1
[1]
  IC50: 45 µM
[2]
  IC50: 33 µM
[3]
  IC50: 20.7 µM
[4]
  IC50: 37.2 µM
[5]
  IC50: 40.4 µM

## C=CCc1ccc(O)c(-c2cc(/C=C3\SC(=O)NC3=O)c(O)c(CC=C)c2)c1
[1]
  IC50: > 102 µM
[3]
  IC50: 81.4 µM
[5]
  IC50: > 102 µM

## C=CCc1cc(/C=C(\C#N)C(=O)OCC)c(O)c(-c2ccc(O)c(CC=C)c2)c1
[1]
  IC50: 92.5 µM
[3]
  IC50: 95.1 µM
[5]
  IC50: 87.4 µM

## C=CCc1cc(/C=N/CCCCCC)c(O)c(-c2ccc(O)c(CC=C)c2)c1
[1]
  IC50: > 106 µM
[3]
  IC50: > 106 µM
[5]
  IC50: > 106 µM

## C=CCc1cc(/C=N/CCN)c(O)c(-c2ccc(O)c(CC=C)c2)c1
[1]
  IC50: 50.3 µM
[3]
  IC50: 42.6 µM
[5]
  IC50: 41.1 µM

## C=CCc1cc(/C=C2\SC(=O)NC2=O)c(O)c(-c2ccc(O)c(CC=C)c2)c1
[1]
  IC50: > 102 µM
[3]
  IC50: 91.6 µM
[5]
  IC50: 91.6 µM

## C=CCc1cc(/C=N/C2CCCCC2)c(O)c(-c2ccc(O)c(CC=C)c2)c1
[1]
  IC50: 88 µM
[3]
  IC50: 90.7 µM
[5]
  IC50: 93.3 µM
